These results are taken from PubChem BioAssay AID2060356 (Molecular Pharmacology Branch, DTP, NCI, 2025).

The subject of this test is PDC tumor spheroids with HUVEC/MSC, viability. Kind of test: Anticancer human tumor 439559-082-T-J2-PDC patient-derived colon adenocarcinoma cell line growth inhibition [TAK]. As to conditions: for viability, T/C: stronger effect = lower value. The text has this:
Combinatorial screen of targeted agents with TAK-243 and ipatasertib in multi-cell type tumor spheroids
A high-throughput screen of multi-cell type tumor spheroids was designed to identify active combinations of targeted small molecules and TAK-243 or ipatasertib. Complex spheroids include a stromal component modeled by human endothelial cells (HUVEC) and fibroblasts modeled by human mesenchymal stem cells (MSCs). The concentration ranges selected for each drug and investigational agent were based upon clinically achievable concentrations if the clinical Cmax of the agent was known.
Compounds. The drugs and investigational agents: TAK-243 (785004), ipatasertib (767898), everolimus (733504), selumetinib (741078), bortezomib (756655), trametinib (758246), ixazomib (758254), vemurafenib (761431), dabrafenib (764134), sapanisertib (764658), alpelisib (765974), and copanlisib (816437), were obtained from the National Cancer Institute (NCI) Developmental Therapeutics Program Chemical Repository. The FDA-approved anticancer drug set is available from the NCI Developmental Therapeutics Program. […] The stock solutions were prepared in dimethyl sulfoxide (DMSO, Sigma-Aldrich, St. Louis, MO, cat. D2650) at 800-fold the tested concentration and stored at -70 degrees C prior to their use. All drugs and investigational agents were tested over a range starting from a high concentration at or near the clinical Cmax and decreasing in half-log increments. If the clinical Cmax for an agent had not been determined, the highest concentration tested was 10 microM.
NCI60 Cell Culture. NCI60 cell lines were obtained from the NCI Developmental Therapeutics Program Tumor Repository. For each lot of cells, the Repository performed Applied Biosystems AmpFLSTR Identifiler testing with PCR amplification to confirm consistency with the published Identifier STR profile for each cell line. Cells were kept in continuous culture for no more than 20 passages. The optimal seeding densities for each of the cell lines at each time point assessed were determined prior to performing the concentration response studies. Briefly, the NCI60 human tumor lines were grown as monolayers in RPMI 1640 medium supplemented with 10% FBS and 2 mmol/L L-glutamine.
An additional 2 lines were from the NCI60 cell line panel including melanomas, MALME-3M and SK-MEL-2. Pooled donor human umbilical vein endothelial cells (HUVEC, Lonza, cat. CC-2519) and human mesenchymal stem cells (hMSC, Lonza, cat. PT-2501) were purchased from Lonza (Walkersville, MD).
PDMR cell lines were grown in complete medium (DC medium): Dulbecco's modified Eagle's medium (DMEM)/F12 supplemented with 5% fetal bovine serum (FBS), 2 mM L-glutamine, 100 U/mL penicillin and 100 µg/ml streptomycin, 0.4 µg/ml hydrocortisone, 10 ng/ml epidermal growth factor (EGF) recombinant human protein, 24 µg/mL adenine, and 0.1 mg/mL primocin. During culture from frozen stock vials, PDMR cells were cultured in the same medium containing 10 µM Y-27632 (see Table 3). The PDCs were cultured in complete DMEM/F12 media without 10 microM Y-27632 dihydrochloride for at least two passages prior to the screen. The pooled donor HUVEC and hMSC were cultured in endothelial cell growth medium 2 (PromoCell, Heidelberg, Germany, cat. C-22011) and mesenchymal stem cell growth medium 2 (PromoCell, cat. C-28009), respectively. For all experiments, HUVEC and hMSC were used at passages </=5.
For the pre-screen, cell seeding densities were determined from a titration spanning the range from 5,000 to 313 cells per well. The mct-spheroids including 60% malignant cells, 25% HUVEC and 15% MSC dispensed as a mixture into U-bottom Ultra-Low Attachment 384-well plates (Corning, NY)
High-throughput Drug Combination Screening.
Prior to their inoculation into 384-well plates, malignant cells, HUVEC, and hMSC were removed from T flasks using TrypLE express (Thermo Fisher Scientific, cat. 12605036) and harvested by centrifugation for 5 min at 233 x g. […]

[1] abbreviates: curve of first compound, second compound 0.3 µM.
[2] abbreviates: curve of first compound, second compound 0.949 µM.
Where [3] appears, read: curve of first compound, second compound 3 µM.
Where [4] appears, read: curve of first compound, second compound 9.49 µM.
The mark [5] stands for this setting: curve of first compound, second compound 30 µM.
Where [6] appears, read: second compound 0.3 µM, first compound 0.0316 µM.
The mark [7] stands for this setting: second compound 0.3 µM, first compound 0.1 µM.
[8] abbreviates: second compound 0.949 µM, first compound 0.0316 µM.
Setting [9] is: second compound 0.949 µM, first compound 0.1 µM.
Setting [10] is: second compound 3 µM, first compound 0.0316 µM.
[11] abbreviates: second compound 3 µM, first compound 0.1 µM.
Where [12] appears, read: second compound 9.49 µM, first compound 0.0316 µM.
[13] abbreviates: second compound 9.49 µM, first compound 0.1 µM.
The mark [14] stands for this setting: second compound 30 µM, first compound 0.0316 µM.
[15] abbreviates: second compound 30 µM, first compound 0.1 µM.

Structures are written as SMILES. “And” between values parts separate entries of the source, which are not always exact repeats. Equal values may be shown once.
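Further: spheroids exposed to drugs for seven days before readout.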

The IC50 is the concentration that gives 50% inhibition. Usually viability, T/C stands for the ratio of treated to control. For `CC(C)CC(NC(=O)CNC(=O)c1cc(Cl)ccc1Cl)B1OC(=O)CC(CC(=O)O)(C(=O)O)O1` (centres undefined) + CC(C)NCC(C(=O)N1CCN(c2ncnc3c2C(C)CC3O)CC1)c1ccc(Cl)cc1, the IC50 is, setting by setting: under setting [1], > 0.1 µM; under setting [2], > 0.1 µM; under setting [3], > 0.1 µM; under setting [4], > 0.1 µM; under setting [5], > 0.1 µM. The viability, T/C (second compound 0.3 µM, first compound 0.000316 µM) was 98.8%; the viability, T/C (second compound 0.3 µM, first compound 0.001 µM) was 105%; the viability, T/C (second compound 0.3 µM, first compound 0.00316 µM) is 96%; the viability, T/C (second compound 0.3 µM, first compound 0.01 µM) is 94.4%; the viability, T/C under setting [6] was 79.7%; the viability, T/C under setting [7] was 57.7%. Also, the viability, T/C by setting is: (second compound 0.949 µM, first compound 0.000316 µM) 117%; (second compound 0.949 µM, first compound 0.001 µM) 107%; (second compound 0.949 µM, first compound 0.00316 µM) 102%; (second compound 0.949 µM, first compound 0.01 µM) 98.4%; under setting [8], 79.6%; under setting [9], 61.1%. For the same molecule, the viability, T/C was 107% (second compound 3 µM, first compound 0.000316 µM); 98.8% (second compound 3 µM, first compound 0.001 µM); 88.5% (second compound 3 µM, first compound 0.00316 µM); 98.7% (second compound 3 µM, first compound 0.01 µM); 75.5% under setting [10]; 58.4% under setting [11]. In addition, the viability, T/C was 95.7% (second compound 9.49 µM, first compound 0.000316 µM); 96.7% (second compound 9.49 µM, first compound 0.001 µM); 93% (second compound 9.49 µM, first compound 0.00316 µM); 89% (second compound 9.49 µM, first compound 0.01 µM); 70.4% under setting [12]; 56.5% under setting [13]. In addition, the viability, T/C reads like this: (second compound 30 µM, first compound 0.000316 µM) 85.7%; (second compound 30 µM, first compound 0.001 µM) 90.5%; (second compound 30 µM, first compound 0.00316 µM) 87%; (second compound 30 µM, first compound 0.01 µM) 83.3%; under setting [14], 75.3%; under setting [15], 57.5%.
Take `Cc1nc(NC(=O)N2CCCC2C(N)=O)sc1-c1ccnc(C(C)(C)C(F)(F)F)c1` (centres undefined) + CC(C)NCC(C(=O)N1CCN(c2ncnc3c2C(C)CC3O)CC1)c1ccc(Cl)cc1: the half-inhibitory concentration (IC50) by setting is: under setting [1], > 10 µM; under setting [2], > 10 µM; under setting [3], > 10 µM; under setting [4], > 10 µM; under setting [5], > 10 µM. For the same molecule, the viability, T/C was 106% under setting [6]; 98.8% under setting [7]; 85% (second compound 0.3 µM, first compound 0.316 µM); 86.8% (second compound 0.3 µM, first compound 1 µM); 80.9% (second compound 0.3 µM, first compound 3.16 µM); 69.6% (second compound 0.3 µM, first compound 10 µM). For the same molecule, the viability, T/C is, setting by setting: under setting [8], 109%; under setting [9], 102%; (second compound 0.949 µM, first compound 0.316 µM) 86.3%; (second compound 0.949 µM, first compound 1 µM) 85.8%; (second compound 0.949 µM, first compound 3.16 µM) 80.1%; (second compound 0.949 µM, first compound 10 µM) 70%. For the same molecule, the viability, T/C was 98.8% under setting [10]; 102% under setting [11]; 85.5% (second compound 3 µM, first compound 0.316 µM); 85.6% (second compound 3 µM, first compound 1 µM); 78.5% (second compound 3 µM, first compound 3.16 µM); 82.3% (second compound 3 µM, first compound 10 µM). Besides, the viability, T/C was 95.8% under setting [12]; 91.4% under setting [13]; 85% (second compound 9.49 µM, first compound 0.316 µM); 83.1% (second compound 9.49 µM, first compound 1 µM); 75.7% (second compound 9.49 µM, first compound 3.16 µM); 74.2% (second compound 9.49 µM, first compound 10 µM). The viability, T/C is, setting by setting: under setting [14], 86.4%; under setting [15], 91.7%; (second compound 30 µM, first compound 0.316 µM) 84.9%; (second compound 30 µM, first compound 1 µM) 79%; (second compound 30 µM, first compound 3.16 µM) 81.3%; (second compound 30 µM, first compound 10 µM) 71.5%.
Take `CC(=O)Nc1cccc(-n2c(=O)n(C3CC3)c(=O)c3c(Nc4ccc(I)cc4F)n(C)c(=O)c(C)c32)c1`: the viability, T/C (compound 94.9 pM) is 105% and 111%; the viability, T/C (compound 0.0003 µM) was 101% and 94.9%; the viability, T/C (compound 0.000949 µM) was 91% and 88.8%; the viability, T/C (compound 0.003 µM) was 73.6% and 75.2%; the viability, T/C (compound 0.00949 µM) was 72.6% and 75.3%; the viability, T/C (compound 0.03 µM) was 63.9% and 60.4%. Moreover, the IC50 (curve of compound) is > 0.03 µM.
`Cc1nc(NC(=O)N2CCCC2C(N)=O)sc1-c1ccnc(C(C)(C)C(F)(F)F)c1` (centres undefined): the viability, T/C was 108% and 109% (compound 0.0316 µM); 105% and 106% (compound 0.1 µM); 88.8% and 87% (compound 0.316 µM); 90.8% and 87.5% (compound 1 µM); 90% and 80.8% (compound 3.16 µM); 82.5% and 78.5% (compound 10 µM). Moreover, the IC50 (curve of compound) is > 10 µM.
